1 compound from PMC12124388, “High-affinity PQQ import is widespread in Gram-negative bacteria” (Science Advances, 2025) can be followed below.

Assay [1] has as its target T1, PqqU (formerly YncD) (Escherichia coli, UniProt P76115).
T1 construct: 10xHis-tagged PqqU from pET-20b-pqqU, expressed in E. coli BL21 (DE3) C41, purified from membranes (DDM or LMNG), 76 kDa monomer; 700 residues in full, 39-699 modelled
T1 sequence (P76115 24-700): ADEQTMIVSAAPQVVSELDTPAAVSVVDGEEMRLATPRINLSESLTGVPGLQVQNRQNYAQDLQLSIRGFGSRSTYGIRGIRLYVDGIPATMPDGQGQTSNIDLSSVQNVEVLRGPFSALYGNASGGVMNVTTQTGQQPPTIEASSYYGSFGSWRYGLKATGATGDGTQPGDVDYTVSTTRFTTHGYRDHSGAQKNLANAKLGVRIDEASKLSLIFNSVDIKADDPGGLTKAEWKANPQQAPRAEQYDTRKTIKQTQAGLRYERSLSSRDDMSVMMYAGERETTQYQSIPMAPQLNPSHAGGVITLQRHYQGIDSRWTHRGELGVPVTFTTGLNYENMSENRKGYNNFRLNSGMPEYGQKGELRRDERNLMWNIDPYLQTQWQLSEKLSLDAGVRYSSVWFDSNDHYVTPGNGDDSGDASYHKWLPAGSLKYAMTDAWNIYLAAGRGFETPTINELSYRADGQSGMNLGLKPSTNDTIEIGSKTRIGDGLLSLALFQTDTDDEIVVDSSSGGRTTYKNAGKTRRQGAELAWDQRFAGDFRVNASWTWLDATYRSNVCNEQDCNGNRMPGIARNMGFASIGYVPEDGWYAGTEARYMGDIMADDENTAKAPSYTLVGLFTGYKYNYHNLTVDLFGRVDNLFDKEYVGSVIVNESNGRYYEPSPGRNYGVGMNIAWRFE
The experiment in a line: isothermal titration calorimetry. The assay is classed as binding. Particulars: 50 mM tris-HCl pH 7.4, 150 mM NaCl; LMNG-purified, excess detergent removed; PQQ as disodium salt, oxidized; curve not accurately fitted, Kd only stated as low to subnanomolar range. A general note: ITC needs no label: the signal is the heat of the interaction.

Assay [2] has as its target T1, PqqU (formerly YncD). The experiment in a line: cryo-EM structure of complex, […] Å. The assay is classed as binding. Particulars: 43 μM PqqU with 910 μM PQQ; LMNG micelle; single PQQ in internal extracellular-side cavity, loops 7 and 8 closed; no metal bound to PQQ.

Take `O=C(O)c1cc(C(=O)O)c2c(n1)C(=O)C(=O)c1cc(C(=O)O)[nH]c1-2` [PQQ]: the Kd result at PqqU (formerly YncD) [1] is given as “likely with a Kd in the low to subnanomolar range”. At PqqU (formerly YncD) [2], the “cryo-EM structure of complex, 1.99 Å” value was “we used cryo-EM to resolve the structure of the PqqU-PQQ complex”.
